Source: patent publication US20240262826A1, “WILD TYPE KIT INHIBITORS” (Blueprint Medicines Corporation, priority 2022, published 2024)

What follows are molecules tested against wild type c-kit (Homo sapiens (Human), UniProt P10721) (assay: PathScan phospho c-kit (Tyr719) sandwich ELISA in SCF-stimulated M-07e cells (pKIT assay)). Conditions: ELISA assay (values not marked *).
Assay type: cell-based
From the text: The ability of compounds of the disclosure (described herein as test compounds) to inhibit autophosphorylation of wild type c-kit was measures using either a PathScan phospho c-kit (Tyr719) sandwich ELISA (CST #7298) or a Phospho c-Kit (Tyr721) Assay Whole Cell Lysate Kit (MSD: 515DPD/catalog number K15119D-2).
For the PathScan phospho c-kit (Tyr719) sandwich ELISA: M-07e cells were resuspended at 2×10^6 cells/mL in phenol red free, serum-free, GM-CSF-free Iscove's Modified Dulbecco's Medium (IMDM) media with 1% Penicillin-Streptomycin. The cells were then dispensed into the wells of a U-bottom, 96-well plate at 50 uL per well using a multichannel pipet. The plate was allowed to incubate at 37° C. in a humidified tissue culture incubator for 4 hours.
After 4 hours of incubation, each well was dosed with 6.25 uL of test compound at a final DMSO concentration of 0.25% for 60 min at 37° C. to generate an 8-point dose concentration series of test compounds in duplicate. Cells were then incubated for 1 hour at 37° C. in a humidified tissue culture incubator. Next, human SCF at 500 ng/mL was added to the appropriate wells at 6.25 uL/well and the plate was shaken at 450 rpm at room temperature for 10 minutes. AlphaLISA 5× Lysis Buffer supplemented with 1× protease and phosphatase inhibitor was then added at 16 uL/well. The plate was sealed with an adherent cover and shaken at 4° C. at 600 rpm for 30 minutes. After this period of lysis, the plate was stored at −80° C.
When the 96-well plate containing M07e lysates was ready to be processed, the plate was brought to room temperature and 40 μl from each well was transferred to the wells of a PathScan Phospho-c-Kit (Tyr719) Sandwich ELISA plate (CST, Catalog #7298). The ELISA plate was sealed with an adherent cover and incubated for 2 hours at 37° C. Next, the wells were washed 4 times with the provided 1× Wash Buffer, and 100 uL/well of reconstituted Detection Antibody was added to each well, the plate sealed with an adherent cover, and incubated at 37° C. for 1 hour. The wash procedure was repeated and 100 uL/well of reconstituted HRP-Linked secondary antibody was added. The plate was sealed with an adherent cover and incubated at 37° C. for 1 hour. The wash procedure was repeated and 100 uL/well of TMB Substrate was added. The plate was incubated for 10 minutes at room temperature or until the positive reaction elicited a blue color in the appropriate wells. 100 uL/well of STOP solution was added and shaken gently for a few seconds a microplate reader or conventional spectrophotometer e.g., a Perkin Elmer Envision multimode plate reader, part #2105-0010.
An IC50 was calculated using a 4-parameter logistic nonlinear regression.

wild type c-kit, sequence (P10721 26-976): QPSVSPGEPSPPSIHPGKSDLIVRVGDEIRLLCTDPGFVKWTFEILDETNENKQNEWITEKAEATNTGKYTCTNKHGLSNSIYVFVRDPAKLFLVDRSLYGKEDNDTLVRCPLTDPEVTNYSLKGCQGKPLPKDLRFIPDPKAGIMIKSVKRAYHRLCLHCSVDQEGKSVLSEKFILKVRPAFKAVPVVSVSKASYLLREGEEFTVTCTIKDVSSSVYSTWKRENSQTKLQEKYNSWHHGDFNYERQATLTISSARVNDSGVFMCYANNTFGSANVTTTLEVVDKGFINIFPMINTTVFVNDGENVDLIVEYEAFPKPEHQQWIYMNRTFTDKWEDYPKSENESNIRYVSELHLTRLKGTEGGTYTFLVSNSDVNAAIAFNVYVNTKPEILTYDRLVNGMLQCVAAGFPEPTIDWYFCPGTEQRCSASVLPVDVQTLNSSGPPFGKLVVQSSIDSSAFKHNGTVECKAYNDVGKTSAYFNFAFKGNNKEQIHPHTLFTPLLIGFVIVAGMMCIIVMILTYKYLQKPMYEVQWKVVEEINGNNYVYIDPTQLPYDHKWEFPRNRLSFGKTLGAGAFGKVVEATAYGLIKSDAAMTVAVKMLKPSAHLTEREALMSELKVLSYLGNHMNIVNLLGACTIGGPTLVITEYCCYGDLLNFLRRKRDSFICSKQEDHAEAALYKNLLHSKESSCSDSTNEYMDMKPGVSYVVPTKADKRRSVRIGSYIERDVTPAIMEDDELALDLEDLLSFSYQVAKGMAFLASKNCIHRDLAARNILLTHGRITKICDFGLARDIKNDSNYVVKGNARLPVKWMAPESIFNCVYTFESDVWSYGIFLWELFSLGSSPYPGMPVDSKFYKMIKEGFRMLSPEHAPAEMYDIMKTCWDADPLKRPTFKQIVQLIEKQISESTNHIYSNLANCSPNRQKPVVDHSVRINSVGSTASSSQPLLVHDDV

Row | IC50 | SMILES
1 | 2.5 nM | Cc1ccc(-c2nnn(CCOC(C)C)n2)cc1NC(=O)c1cnn2ccccc12 [Example 11, N-(5-(2-(2-isopropoxyethyl)-2H-tetrazol-5-yl)-2-methylphenyl)pyrazolo[1,5-a]pyridine-3-carboxamide]
2 | 28.6 nM | CCn1nnc(-c2ccc(C)c(NC(=O)c3cnn4ccccc34)c2)n1 [Example 14, N-(5-(2-ethyl-2H-tetrazol-5-yl)-2-methylphenyl)pyrazolo[1,5-a]pyridine-3-carboxamide]
3 | 4.2 nM | O=C(Nc1cc(-c2nnn(CC3CC3)n2)ccc1Cl)c1cnn2ccccc12 [Example 15, N-(2-chloro-5-(2-(cyclopropylmethyl)-2H-tetrazol-5-yl)phenyl)pyrazolo[1,5-a]pyridine-3-carboxamide]
4 | 2.3 nM | O=C(Nc1cc(-c2nnn(CC3CC3(F)F)n2)ccc1Cl)c1cnn2ccccc12 (centres unmarked) [Example 16, N-(2-chloro-5-(2-((2,2-difluorocyclopropyl)methyl)-2H-tetrazol-5-yl)phenyl)pyrazolo[1,5-a]pyridine-3-carboxamide]
5 | 6.5 nM | O=C(Nc1cc(-c2nnn(C3CC(F)(F)C3)n2)ccc1Cl)c1cnn2ccccc12 [Example 17, N-(2-chloro-5-(2-(3,3-difluorocyclobutyl)-2H-tetrazol-5-yl)phenyl)pyrazolo[1,5-a]pyridine-3-carboxamide]
6 | 29.6 nM | O=C(Nc1cc(-c2nnn(CC34COC(C3)C4)n2)ccc1Cl)c1cnn2ccccc12 [Example 18, N-(5-(2-((2-oxabicyclo[2.1.1]hexan-4-yl)methyl)-2H-tetrazol-5-yl)-2-chlorophenyl)pyrazolo[1,5-a]pyridine-3-carboxamide]
7 | 7.5 nM | O=C(Nc1cc(-c2nnn(CC3CC(F)(F)C3)n2)ccc1Cl)c1cnn2ccccc12 [Example 19, N-(2-chloro-5-(2-((3,3-difluorocyclobutyl)methyl)-2H-tetrazol-5-yl)phenyl)pyrazolo[1,5-a]pyridine-3-carboxamide]
8 | 50.9 nM | Cc1cc(C)c(-c2nnn(CC34COC(C3)C4)n2)cc1NC(=O)c1cnn2ccccc12 [Example 20, N-(5-(2-((2-oxabicyclo[2.1.1]hexan-4-yl)methyl)-2H-tetrazol-5-yl)-2,4-dimethylphenyl)pyrazolo[1,5-a]pyridine-3-carboxamide]
9 | 6.4 nM | Cc1cc(C)c(-c2nnn(CC3CC3(F)F)n2)cc1NC(=O)c1cnn2ccccc12 (centres unmarked) [Example 21, N-(5-(2-((2,2-difluorocyclopropyl)methyl)-2H-tetrazol-5-yl)-2,4-dimethylphenyl)pyrazolo[1,5-a]pyridine-3-carboxamide]
10 | 19.3 nM | Nc1ccn2ncc(C(=O)Nc3cc(-c4nnn(CC5CC5(F)F)n4)ccc3Cl)c2c1 (centres unmarked) [Example 27, 5-amino-N-(2-chloro-5-(2-((2,2-difluorocyclopropyl)methyl)-2H-tetrazol-5-yl)phenyl)pyrazolo[1,5-a]pyridine-3-carboxamide]
11 | 11.1 nM | Cc1ccc(-c2cnn(C3CC3)n2)cc1NC(=O)c1cnn2ccccc12 [Example 29, N-(5-(2-cyclopropyl-2H-1,2,3-triazol-4-yl)-2-methylphenyl)pyrazolo[1,5-a]pyridine-3-carboxamide]
12 | 8.5 nM | Cc1cc(C)c(-c2nnn(CCC(C)(O)C(F)(F)F)n2)cc1NC(=O)c1cnn2ccccc12 (centres unmarked) [Example 36, N-(2,4-dimethyl-5-(2-(4,4,4-trifluoro-3-hydroxy-3-methylbutyl)-2H-tetrazol-5-yl)phenyl)pyrazolo[1,5-a]pyridine-3-carboxamide]
13 | 70.2 nM | COCCNc1ccn2ncc(C(=O)Nc3cc(-c4nnn(C5CN(C(=O)OC)C5)n4)ccc3C)c2c1C [Example 45, methyl 3-(5-(3-(5-((2-methoxyethyl)amino)-4-methylpyrazolo[1,5-a]pyridine-3-carboxamido)-4-methylphenyl)-2H-tetrazol-2-yl)azetidine-1-carboxylate]
14 | 3.6 nM | Cc1ccc(-c2nnn(C)n2)cc1NC(=O)c1cnn2ccc(-c3cnn(CC(C)(C)O)c3)cc12 [Example 48, 5-(1-(2-hydroxy-2-methylpropyl)-1H-pyrazol-4-yl)-N-(2-methyl-5-(2-methyl-2H-tetrazol-5-yl)phenyl)pyrazolo[1,5-a]pyridine-3-carboxamide]
15 | 4.5 nM | Cc1cc(F)c(-c2nnn(C3CC(F)(F)C3)n2)cc1NC(=O)c1cnn2ccc(N3CCOCC3)cc12 [Example 59, N-(5-(2-(3,3-difluorocyclobutyl)-2H-tetrazol-5-yl)-4-fluoro-2-methylphenyl)-5-morpholinopyrazolo[1,5-a]pyridine-3-carboxamide]
16 | 1.8 nM | Cc1ccc(-c2nnn(C3CC(F)(F)C3)n2)cc1NC(=O)c1cnn2ccc(N3CC(O)C3)cc12 [Example 60, N-(5-(2-(3,3-difluorocyclobutyl)-2H-tetrazol-5-yl)-2-methylphenyl)-5-(3-hydroxyazetidin-1-yl)pyrazolo[1,5-a]pyridine-3-carboxamide]
17 | 10.5 nM | O=C(Nc1cc(-c2nnn(C3CC(F)(F)C3)n2)c(F)cc1Cl)c1cnn2ccc(N3CCOCC3)cc12 [Example 63, N-(2-chloro-5-(2-(3,3-difluorocyclobutyl)-2H-tetrazol-5-yl)-4-fluorophenyl)-5-morpholinopyrazolo[1,5-a]pyridine-3-carboxamide]
18 | 22.7 nM | COC(=O)N1CC(n2nnc(-c3ccc(C)c(NC(=O)c4cnn5ccc(N6CCC(F)(F)C6)cc45)c3)n2)C1 [Example 67, methyl 3-(5-(3-(5-(3,3-difluoropyrrolidin-1-yl)pyrazolo[1,5-a]pyridine-3-carboxamido)-4-methylphenyl)-2H-tetrazol-2-yl)azetidine-1-carboxylate]
19 | 61.3 nM | COC(=O)N1CC(n2nnc(-c3ccc(C)c(NC(=O)c4cnn5ccc(N6CCO[C@H](CO)C6)cc45)c3)n2)C1 [Example 68, methyl (S)-3-(5-(3-(5-(2-(hydroxymethyl)morpholino)pyrazolo[1,5-a]pyridine-3-carboxamido)-4-methylphenyl)-2H-tetrazol-2-yl)azetidine-1-carboxylate]
20 | 53.1 nM | COC(=O)N1CC(n2nnc(-c3ccc(C)c(NC(=O)c4cnn5ccc(N6CCC[C@H](O)C6)cc45)c3)n2)C1 [Example 70, methyl (S)-3-(5-(3-(5-(3-hydroxypiperidin-1-yl)pyrazolo[1,5-a]pyridine-3-carboxamido)-4-methylphenyl)-2H-tetrazol-2-yl)azetidine-1-carboxylate]
21 | 41.6 nM | COC(=O)N1CC(n2nnc(-c3ccc(C)c(NC(=O)c4cnn5ccc(N6CCC[C@@H](O)C6)cc45)c3)n2)C1 [Example 71, methyl (R)-3-(5-(3-(5-(3-hydroxypiperidin-1-yl)pyrazolo[1,5-a]pyridine-3-carboxamido)-4-methylphenyl)-2H-tetrazol-2-yl)azetidine-1-carboxylate]
22 | 38.4 nM | [2H]C([2H])([2H])N1CCN(c2ccn3ncc(C(=O)Nc4cc(-c5nnn(C6CN(C(=O)OC)C6)n5)ccc4C)c3c2)CC1 [Example 72, methyl 3-(5-(4-methyl-3-(5-(4-(methyl-d3)piperazin-1-yl)pyrazolo[1,5-a]pyridine-3-carboxamido)phenyl)-2H-tetrazol-2-yl)azetidine-1-carboxylate]

Row | SMILES | IC50
23 | Cc1ccc(-c2nnn(CCOC3CCC3)n2)cc1NC(=O)c1cnn2ccccc12 [Example 12, N-(5-(2-(2-cyclobutoxyethyl)-2H-tetrazol-5-yl)-2-methylphenyl)pyrazolo[1,5-a]pyridine-3-carboxamide] | 2.4 nM
